Literature values as cited in US20070254835A1, “COMPOSITION AND METHOD FOR TREATING NEUROLOGICAL DISORDERS” (priority 2003, published 2007).

Tests used:
[1] = test system: mammalian HDAC; conditions: Yoshida et al. 1990
[2] = test system: HDAC; conditions: in words only; literature
[3] = sterile powder formulation stored at 2-8° C.
[4] = test system: DNA methyltransferase; conditions: after incorporation at a site of methylation
[5] = test system: MT-3; conditions: brain tissue

Molecule: CC(/C=C/C(=O)NO)=C\[C@@H](C)C(=O)c1ccc(N(C)C)cc1 [TSA, trichostatin A]
- inhibition of mammalian HDAC [1]: potent inhibitor

Molecule: depudecin
- concentration at which HDAC is inhibited [2]: micromolar concentrations

Molecule: Nc1ncn([C@H]2C[C@H](O)[C@@H](CO)O2)c(=O)n1 [decitabine, 5-aza-2′-deoxycytidine]
- time the drug is kept stable [3]: at least 2 years
- effect on DNA methyltransferase [4]: irreversible inactivation
- half life in vivo: short half life
- tissue distribution (in vivo): excellent tissue distribution

Molecule: Nc1ncn([C@@H]2O[C@H](CO)[C@@H](O)[C@H]2O)c(=O)n1 [5-azacytidine]
- MT-3 expression after treatment [5]: re-expression of MT-3

Molecule: O=C(/C=C/c1cccc(C(=O)NO)c1)NO [CBHA, m-carboxy-cinnamic acid bishydroxamic acid]
- concentration at which HDAC is inhibited [2]: micromolar concentration or lower

Molecule: C/C=C1\NC(=O)[C@H]2CSSCC/C=C/[C@H](CC(=O)N[C@H](C(C)C)C(=O)N2)OC(=O)[C@H](C(C)C)NC1=O [Depsipeptide, depsipeptide]
- concentration at which HDAC is inhibited [2]: micromolar concentrations
